Like-named read-outs stand apart in the source and are kept apart here.
Key:
Test in all cases: Test A pre/postemergence
Type in all cases: in vivo
[1] = system: redroot pigweed (Amaranthus retroflexus); conditions: for pest or weed control at 125 g/ha / pest or weed control at 500 g/ha: Amaranthus retroflexus, 240 h, read-out: Plant response rating, Pigweed
Method: (§1) Seeds of barnyardgrass (Echinochloa crus-galli), crabgrass (Digitaria sanguinalis), giant foxtail (Setaria faberi), morningglory (Ipomoea spp.), redroot pigweed (Amaranthus retroflexus) and velvetleaf (Abutilon theophrasti) were planted into a blend of loam soil and sand and treated preemergence with a directed soil spray using test chemicals formulated in a non-phytotoxic solvent mixture which included a surfactant. At the same time these species were also treated with postemergence applications of test chemicals formulated in the same manner.
(§2) Plants ranged in height from 2 to 10 cm and were in the 1- to 2-leaf stage for the postemergence treatment. Treated plants and untreated controls were maintained in a greenhouse for approximately ten days, after which time all treated plants were compared to untreated controls and visually evaluated for injury. Plant response ratings, summarized in Table A, are based on a 0 to 100 scale where 0 is no effect and 100 is complete control. A dash (-) response means no test results.

[2] = system: morningglory (Ipomoea spp.); conditions: for pest or weed control at 125 g/ha / pest or weed control at 500 g/ha: Ipomoea, 240 h, read-out: Plant response rating, Morningglory
Method: as §1, §2

[3] = system: giant foxtail (Setaria faberi); conditions: for pest or weed control at 125 g/ha / pest or weed control at 500 g/ha: Setaria faberi, 240 h, read-out: Plant response rating, Foxtail, Giant
Method: as §1, §2

[4] = system: barnyardgrass (Echinochloa crus-galli); conditions: for pest or weed control at 125 g/ha / pest or weed control at 500 g/ha: Echinochloa crus-galli, 240 h, read-out: Plant response rating, Barnyardgrass
Method: as §1, §2

[5] = system: velvetleaf (Abutilon theophrasti); conditions: for pest or weed control at 125 g/ha / pest or weed control at 500 g/ha: Abutilon theophrasti, 240 h, read-out: Plant response rating, Velvetleaf
Method: as §1, §2

[6] = system: crabgrass (Digitaria sanguinalis); conditions: for pest or weed control at 125 g/ha / pest or weed control at 500 g/ha: Digitaria sanguinalis, 240 h, read-out: Plant response rating, Crabgrass
Method: as §1, §2

[7] = post-emergence, Postemergence, 125 g ai/ha, 0 to 100 scale (0 no effect, 100 complete control)
[8] = post-emergence, Postemergence, 500 g ai/ha, 0 to 100 scale (0 no effect, 100 complete control)
[9] = pre-emergence, Preemergence, 125 g ai/ha, 0 to 100 scale where 0 is no effect and 100 is complete control, approximately ten days
[10] = pre-emergence, Preemergence, 500 g ai/ha, 0 to 100 scale where 0 is no effect and 100 is complete control, approximately ten days
[11] = Postemergence, 125 g ai/ha, 0 to 100 scale (0 no effect, 100 complete control)
[12] = Postemergence, 500 g ai/ha, 0 to 100 scale (0 no effect, 100 complete control)
[13] = Preemergence, 125 g ai/ha, 0 to 100 scale where 0 is no effect and 100 is complete control, approximately ten days
[14] = Preemergence, 500 g ai/ha, 0 to 100 scale where 0 is no effect and 100 is complete control, approximately ten days

## CCOC(=O)c1nc(-c2ccc3c(c2)OCO3)nc(N)c1Br [Compound 68]
[1]; [7]
  pest or weed control at 125 g/ha: 50%
[1]; [8]
  pest or weed control at 500 g/ha: 55%
[1]; [9]
  pest or weed control at 125 g/ha: 0%
[1]; [10]
  pest or weed control at 500 g/ha: 15%
[2]; [7]
  pest or weed control at 125 g/ha: 15%
[2]; [8]
  pest or weed control at 500 g/ha: 35%
[2]; [9]
  pest or weed control at 125 g/ha: 0%
[2]; [10]
  pest or weed control at 500 g/ha: 0%
[3]; [7]
  pest or weed control at 125 g/ha: 0%
[3]; [8]
  pest or weed control at 500 g/ha: 0%
[3]; [9]
  pest or weed control at 125 g/ha: 0%
[3]; [10]
  pest or weed control at 500 g/ha: 0%
[4]; [7]
  pest or weed control at 125 g/ha: 0%
[4]; [8]
  pest or weed control at 500 g/ha: 0%
[4]; [9]
  pest or weed control at 125 g/ha: 0%
[4]; [10]
  pest or weed control at 500 g/ha: 0%
[5]; [7]
  pest or weed control at 125 g/ha: 60%
[5]; [8]
  pest or weed control at 500 g/ha: 60%
[5]; [9]
  pest or weed control at 125 g/ha: 5%
[5]; [10]
  pest or weed control at 500 g/ha: 10%
[6]; [7]
  pest or weed control at 125 g/ha: 0%
[6]; [8]
  pest or weed control at 500 g/ha: 0%
[6]; [9]
  pest or weed control at 125 g/ha: 0%
[6]; [10]
  pest or weed control at 500 g/ha: 0%

## COC(=O)c1nc(-c2ccc([S+](C)[O-])cc2)nc(N)c1Cl (stereo not drawn) [Compound 123]
[1]; [11]
  Plant response rating, Pigweed: 0
[1]; [12]
  Plant response rating, Pigweed: 0
[1]; [13]
  Plant response rating, Pigweed: 0
[1]; [14]
  Plant response rating, Pigweed: 0
[2]; [11]
  Plant response rating, Morningglory: 0
[2]; [12]
  Plant response rating, Morningglory: 20
[2]; [13]
  Plant response rating, Morningglory: 0
[2]; [14]
  Plant response rating, Morningglory: 0
[3]; [11]
  Plant response rating, Foxtail, Giant: 0
[3]; [12]
  Plant response rating, Foxtail, Giant: 10
[3]; [13]
  Plant response rating, Foxtail, Giant: 0
[3]; [14]
  Plant response rating, Foxtail, Giant: 0
[4]; [11]
  Plant response rating, Barnyardgrass: 0
[4]; [12]
  Plant response rating, Barnyardgrass: 10
[4]; [13]
  Plant response rating, Barnyardgrass: 0
[4]; [14]
  Plant response rating, Barnyardgrass: 0
[5]; [11]
  Plant response rating, Velvetleaf: 0
[5]; [12]
  Plant response rating, Velvetleaf: 0
[5]; [13]
  Plant response rating, Velvetleaf: 0
[5]; [14]
  Plant response rating, Velvetleaf: 0
[6]; [11]
  Plant response rating, Crabgrass: 0
[6]; [12]
  Plant response rating, Crabgrass: 0
[6]; [13]
  Plant response rating, Crabgrass: 0
[6]; [14]
  Plant response rating, Crabgrass: 0

## CC(C)OC(=O)c1nc(-c2ccc(Cl)cc2)nc(N)c1Cl [Compound 102]
[1]; [11]
  Plant response rating, Pigweed: 50
[1]; [12]
  Plant response rating, Pigweed: 65
[1]; [13]
  Plant response rating, Pigweed: 10
[1]; [14]
  Plant response rating, Pigweed: 15
[2]; [11]
  Plant response rating, Morningglory: 0
[2]; [12]
  Plant response rating, Morningglory: 15
[2]; [13]
  Plant response rating, Morningglory: 0
[2]; [14]
  Plant response rating, Morningglory: 0
[3]; [11]
  Plant response rating, Foxtail, Giant: 0
[3]; [12]
  Plant response rating, Foxtail, Giant: 0
[3]; [13]
  Plant response rating, Foxtail, Giant: 0
[3]; [14]
  Plant response rating, Foxtail, Giant: 0
[4]; [11]
  Plant response rating, Barnyardgrass: 0
[4]; [12]
  Plant response rating, Barnyardgrass: 0
[4]; [13]
  Plant response rating, Barnyardgrass: 0
[4]; [14]
  Plant response rating, Barnyardgrass: 0
[5]; [11]
  Plant response rating, Velvetleaf: 45
[5]; [12]
  Plant response rating, Velvetleaf: 70
[5]; [13]
  Plant response rating, Velvetleaf: 10
[5]; [14]
  Plant response rating, Velvetleaf: 20
[6]; [11]
  Plant response rating, Crabgrass: 10
[6]; [12]
  Plant response rating, Crabgrass: 10
[6]; [13]
  Plant response rating, Crabgrass: 0
[6]; [14]
  Plant response rating, Crabgrass: 0

## Nc1nc(C2CC2)nc(C(=O)OCCCOC(=O)c2nc(C3CC3)nc(N)c2Cl)c1Cl [Compound 142]
[1]; [11]
  Plant response rating, Pigweed: 85
[1]; [12]
  Plant response rating, Pigweed: 90
[1]; [13]
  Plant response rating, Pigweed: 70
[1]; [14]
  Plant response rating, Pigweed: 90
[2]; [11]
  Plant response rating, Morningglory: 90
[2]; [12]
  Plant response rating, Morningglory: 90
[2]; [13]
  Plant response rating, Morningglory: 85
[2]; [14]
  Plant response rating, Morningglory: 95
[3]; [11]
  Plant response rating, Foxtail, Giant: 30
[3]; [12]
  Plant response rating, Foxtail, Giant: 45
[3]; [13]
  Plant response rating, Foxtail, Giant: 25
[3]; [14]
  Plant response rating, Foxtail, Giant: 65
[4]; [11]
  Plant response rating, Barnyardgrass: 45
[4]; [12]
  Plant response rating, Barnyardgrass: 75
[4]; [13]
  Plant response rating, Barnyardgrass: 50
[4]; [14]
  Plant response rating, Barnyardgrass: 75
[5]; [11]
  Plant response rating, Velvetleaf: 80
[5]; [12]
  Plant response rating, Velvetleaf: 90
[5]; [13]
  Plant response rating, Velvetleaf: 85
[5]; [14]
  Plant response rating, Velvetleaf: 85
[6]; [11]
  Plant response rating, Crabgrass: 15
[6]; [12]
  Plant response rating, Crabgrass: 25
[6]; [13]
  Plant response rating, Crabgrass: 45
[6]; [14]
  Plant response rating, Crabgrass: 85

## CC(C)N.Nc1nc(C2CC2)nc(C(=O)O)c1Cl [Compound 144]
[1]; [11]
  Plant response rating, Pigweed: 85
[1]; [12]
  Plant response rating, Pigweed: 100
[1]; [13]
  Plant response rating, Pigweed: 75
[1]; [14]
  Plant response rating, Pigweed: 85
[2]; [11]
  Plant response rating, Morningglory: 85
[2]; [12]
  Plant response rating, Morningglory: 95
[2]; [13]
  Plant response rating, Morningglory: 85
[2]; [14]
  Plant response rating, Morningglory: 95
[3]; [11]
  Plant response rating, Foxtail, Giant: 70
[3]; [12]
  Plant response rating, Foxtail, Giant: 80
[3]; [13]
  Plant response rating, Foxtail, Giant: 35
[3]; [14]
  Plant response rating, Foxtail, Giant: 80
[4]; [11]
  Plant response rating, Barnyardgrass: 60
[4]; [12]
  Plant response rating, Barnyardgrass: 90
[4]; [13]
  Plant response rating, Barnyardgrass: 65
[4]; [14]
  Plant response rating, Barnyardgrass: 80
[5]; [11]
  Plant response rating, Velvetleaf: 95
[5]; [12]
  Plant response rating, Velvetleaf: 100
[5]; [13]
  Plant response rating, Velvetleaf: 75
[5]; [14]
  Plant response rating, Velvetleaf: 85
[6]; [11]
  Plant response rating, Crabgrass: 40
[6]; [12]
  Plant response rating, Crabgrass: 80
[6]; [13]
  Plant response rating, Crabgrass: 75
[6]; [14]
  Plant response rating, Crabgrass: 95

Reference: US8802597B2, “Herbicidal pyrimidines” (E I du Pont de Nemours and Company, priority 2003, dated 2014)
